In patent US20090191253A2 (Creabilis Therapeutics S.P.A., priority 2005, published 2009):

Tests used:
Assay type in all cases: biochemical
JNK2 = target: T1, JNK2 (Homo sapiens, UniProt P45984); assay: Kinase inhibition profiling JNK2 (ELISA); also: ATP 5 µM
T1 construct: Human JNK2 containing 424 amino acids was expressed; His (C); made in house; host or cells: E. coli
Description: (§1) Each test compound was weighed and dissolved in DMSO to make 1 mM stock solution. The stock solution was diluted with DMSO to achieve 20 μM. The compound solution was diluted with the assay buffer to achieve 0.8 μM.

HER2 = target: T2, HER2 (Homo sapiens, UniProt P04626); assay: Kinase inhibition profiling HER2 (ELISA); also: ATP 5 µM
T2 construct: Cytoplasmic domain of human HER2 [676-1255 amino; made in house; host or cells: baculovirus expression system
Description: as §1

EGFR = target: T3, EGFR (Homo sapiens, UniProt P00533); assay: Kinase inhibition profiling EGFR (ELISA); also: ATP 5 µM
T3 construct: Cytoplasmic domain of human EGFR [669-1210 amino; made in house; host or cells: baculovirus expression system
Description: as §1

PKCγ = target: T4, PKCγ (Homo sapiens, UniProt P05129); assay: Kinase inhibition profiling PKCγ (IMAP)
T4 construct: made in house; host or cells: baculovirus expression system
Description: as §1

PDGFRα = target: T5, PDGFRα (Homo sapiens, UniProt P16234); assay: Kinase inhibition profiling PDGFRα (ELISA)
T5 construct: Cytoplasmic domain of human PDGFRα [550-1089; made in house; host or cells: baculovirus expression system
Description: as §1

IGF1R = target: T6, IGF1R (Homo sapiens, UniProt P08069); assay: Kinase inhibition profiling IGF1R (ELISA)
T6 construct: Cytoplasmic domain of human IGF1R [959-1367 amino; made in house; host or cells: baculovirus expression system
Description: as §1

IRAK4 = target: T7, IRAK4 (Homo sapiens, UniProt Q9NWZ3); assay: Kinase inhibition profiling IRAK4 (IMAP); also: ATP 80 µM
T7 construct: Kinase domain (KD) of Human IRAK4 [172-460 amino; GST (N); made in house; host or cells: baculovirus expression system
Description: as §1

AurA = target: T8, AurA (Homo sapiens, UniProt O14965); assay: Kinase inhibition profiling AurA (IMAP)
T8 construct: GST (N); made in house; host or cells: baculovirus expression system
Description: as §1

CHK2 = target: T9, CHK2 (Homo sapiens, UniProt O96017); assay: Kinase inhibition profiling CHK2 (IMAP)
T9 construct: His (N); made in house; host or cells: baculovirus expression system
Description: as §1

TNK1 = target: T10, TNK1 (Homo sapiens, UniProt Q13470); assay: Kinase inhibition profiling TNK1 (ELISA)
T10 construct: Kinase domain (KD) of human TNK [110-394 amino; made in house; host or cells: baculovirus expression system
T10 sequence (Q13470 110-394): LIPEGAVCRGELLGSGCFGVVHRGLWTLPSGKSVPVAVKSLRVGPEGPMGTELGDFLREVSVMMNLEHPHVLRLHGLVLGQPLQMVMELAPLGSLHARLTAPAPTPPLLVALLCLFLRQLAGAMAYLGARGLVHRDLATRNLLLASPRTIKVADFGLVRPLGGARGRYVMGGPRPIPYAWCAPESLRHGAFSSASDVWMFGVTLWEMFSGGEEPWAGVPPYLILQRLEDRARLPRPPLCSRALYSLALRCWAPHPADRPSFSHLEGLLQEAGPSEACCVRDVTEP
Description: (§2) In particular, the target kinases were Tyrosine kinases and Serine/Threonine kinases.
as §1

PDGFRβ = target: T11, PDGFRβ (Homo sapiens, UniProt P09619); assay: Kinase inhibition profiling PDGFRβ (ELISA)
T11 construct: Cytoplasmic domain of human PDGFRβ [557-1106 amino; made in house; host or cells: baculovirus expression system
Description: as §1

JAK1 = target: T12, JAK1 (Homo sapiens, UniProt P23458); assay: Kinase inhibition profiling JAK1 (ELISA)
T12 construct: Kinase domain (KD) of human JAK1 [838-1142 amino; made in house; host or cells: baculovirus expression system
Description: as §1

Erk1 = target: T13, Erk1 (Homo sapiens, UniProt P27361); assay: Kinase inhibition profiling Erk1 (IMAP)
T13 construct: Human Erk1 containing 379 amino acids was expressed; His (N); made in house; host or cells: E. coli
Description: as §1

MER = target: T14, MER (Homo sapiens, UniProt Q12866); assay: Kinase inhibition profiling MER (ELISA)
T14 construct: made in house; host or cells: baculovirus expression system
Description: as §1

EphB4 = target: T15, EphB4 (Homo sapiens, UniProt P54760); assay: Kinase inhibition profiling EphB4 (ELISA)
T15 construct: Cytoplasmic domain of human EphB4 [577-987 amino; made in house; host or cells: baculovirus expression system
T15 sequence (P54760 577-987): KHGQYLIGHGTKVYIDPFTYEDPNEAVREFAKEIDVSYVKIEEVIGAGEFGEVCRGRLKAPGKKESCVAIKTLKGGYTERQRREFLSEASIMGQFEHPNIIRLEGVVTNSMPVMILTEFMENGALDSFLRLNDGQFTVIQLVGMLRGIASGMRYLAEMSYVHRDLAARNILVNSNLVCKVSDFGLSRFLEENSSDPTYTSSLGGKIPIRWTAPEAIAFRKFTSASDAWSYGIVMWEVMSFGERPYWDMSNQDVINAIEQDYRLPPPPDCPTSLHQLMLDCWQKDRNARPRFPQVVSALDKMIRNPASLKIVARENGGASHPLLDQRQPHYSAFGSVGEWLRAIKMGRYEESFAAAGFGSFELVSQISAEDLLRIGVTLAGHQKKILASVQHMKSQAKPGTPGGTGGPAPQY
Description: as §1

FAK = target: T16, FAK (Homo sapiens, UniProt Q05397); assay: Kinase inhibition profiling FAK (ELISA)
T16 construct: made in house; host or cells: baculovirus expression system
Description: as §1

FGR = target: T17, FGR (Homo sapiens, UniProt P09769); assay: Kinase inhibition profiling FGR (ELISA); also: ATP 5 µM
T17 construct: His (N, cleaved yes); made in house; host or cells: baculovirus expression system
Description: as §2, §1

KIT = target: T18, KIT (Homo sapiens, UniProt P10721); assay: Kinase inhibition profiling KIT (ELISA)
T18 construct: made in house; host or cells: baculovirus expression system
Description: as §1

FGFR1 = target: T19, FGFR1 (Homo sapiens, UniProt P11362); assay: Kinase inhibition profiling FGFR1 (ELISA)
T19 construct: Cytoplasmic domain of human FGFR1 [396-820 amino; made in house; host or cells: baculovirus expression system
T19 sequence (P11362 398-822): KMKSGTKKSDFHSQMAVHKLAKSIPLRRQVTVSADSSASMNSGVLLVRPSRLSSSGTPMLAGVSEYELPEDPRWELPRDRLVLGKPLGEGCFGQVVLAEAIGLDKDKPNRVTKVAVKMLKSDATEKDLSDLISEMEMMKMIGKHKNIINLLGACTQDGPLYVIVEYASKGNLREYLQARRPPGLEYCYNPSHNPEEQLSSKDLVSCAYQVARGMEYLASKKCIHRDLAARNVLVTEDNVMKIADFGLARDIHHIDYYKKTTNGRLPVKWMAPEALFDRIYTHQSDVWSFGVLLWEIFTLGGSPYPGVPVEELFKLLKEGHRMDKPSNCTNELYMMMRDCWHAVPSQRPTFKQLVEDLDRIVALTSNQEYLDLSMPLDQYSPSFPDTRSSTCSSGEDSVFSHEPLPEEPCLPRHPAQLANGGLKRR
Description: as §1

CaMK2α = target: T20, CaMK2α (Homo sapiens, UniProt Q9UQM7); assay: Kinase inhibition profiling CaMK2α (IMAP)
T20 construct: His (N); made in house; host or cells: baculovirus expression system
Description: as §2, §1

YES = target: T21, YES (Homo sapiens, UniProt P07947); assay: Kinase inhibition profiling YES (ELISA)
T21 construct: made in house; host or cells: baculovirus expression system
T21 sequence (P07947 whole entry): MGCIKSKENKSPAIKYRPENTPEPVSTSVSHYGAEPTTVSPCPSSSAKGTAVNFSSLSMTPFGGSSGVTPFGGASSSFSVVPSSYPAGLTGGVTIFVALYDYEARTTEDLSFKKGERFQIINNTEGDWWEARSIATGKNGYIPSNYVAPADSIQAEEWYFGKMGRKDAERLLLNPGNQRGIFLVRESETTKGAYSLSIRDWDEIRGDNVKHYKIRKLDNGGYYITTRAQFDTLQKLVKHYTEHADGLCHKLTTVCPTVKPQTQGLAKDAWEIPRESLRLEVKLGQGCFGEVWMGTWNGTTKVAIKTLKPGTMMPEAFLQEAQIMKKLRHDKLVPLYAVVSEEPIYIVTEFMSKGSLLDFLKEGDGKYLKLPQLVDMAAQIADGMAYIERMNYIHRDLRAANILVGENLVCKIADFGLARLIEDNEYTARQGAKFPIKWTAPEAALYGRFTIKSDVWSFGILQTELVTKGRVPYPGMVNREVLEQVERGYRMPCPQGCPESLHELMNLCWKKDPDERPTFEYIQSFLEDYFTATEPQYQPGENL
Description: as §2, §1

EphA2 = target: T22, EphA2 (Homo sapiens, UniProt P29317); assay: Kinase inhibition profiling EphA2 (ELISA)
T22 construct: made in house; host or cells: baculovirus expression system
T22 sequence (P29317 572-976): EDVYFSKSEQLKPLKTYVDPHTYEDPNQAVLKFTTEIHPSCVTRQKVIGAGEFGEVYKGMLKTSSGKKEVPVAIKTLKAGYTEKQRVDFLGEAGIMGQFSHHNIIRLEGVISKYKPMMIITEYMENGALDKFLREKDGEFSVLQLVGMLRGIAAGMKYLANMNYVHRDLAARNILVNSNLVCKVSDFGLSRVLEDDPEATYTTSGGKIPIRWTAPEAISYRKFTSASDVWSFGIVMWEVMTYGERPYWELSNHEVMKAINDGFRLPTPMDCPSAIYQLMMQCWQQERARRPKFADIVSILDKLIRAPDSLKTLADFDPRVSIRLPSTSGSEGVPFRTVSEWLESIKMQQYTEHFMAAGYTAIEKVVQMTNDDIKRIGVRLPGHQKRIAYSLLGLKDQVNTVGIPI
Description: as §1

ARG = target: T23, ARG (Homo sapiens, UniProt P42684); assay: Kinase inhibition profiling ARG (ELISA); also: ATP 5 µM
T23 construct: made in house; host or cells: baculovirus expression system
Description: as §1

FYN = target: T24, FYN (Homo sapiens, UniProt P06241); assay: Kinase inhibition profiling FYN (ELISA); also: ATP 20 µM
T24 construct: made in house; host or cells: baculovirus expression system
T24 sequence (P06241 whole entry): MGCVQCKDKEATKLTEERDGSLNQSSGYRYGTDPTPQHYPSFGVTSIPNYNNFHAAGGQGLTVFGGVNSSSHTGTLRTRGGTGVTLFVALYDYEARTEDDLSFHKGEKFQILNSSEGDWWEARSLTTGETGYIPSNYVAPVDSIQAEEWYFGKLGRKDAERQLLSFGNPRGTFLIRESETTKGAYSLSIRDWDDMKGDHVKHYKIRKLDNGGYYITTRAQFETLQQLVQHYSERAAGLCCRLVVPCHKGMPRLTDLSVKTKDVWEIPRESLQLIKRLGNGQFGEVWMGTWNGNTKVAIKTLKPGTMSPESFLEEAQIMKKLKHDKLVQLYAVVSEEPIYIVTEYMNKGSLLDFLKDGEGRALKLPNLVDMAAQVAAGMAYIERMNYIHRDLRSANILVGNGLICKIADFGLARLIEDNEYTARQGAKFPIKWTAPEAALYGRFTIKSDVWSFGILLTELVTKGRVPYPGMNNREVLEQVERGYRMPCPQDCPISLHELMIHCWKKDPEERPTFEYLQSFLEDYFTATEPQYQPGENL
Description: as §2, §1

ABL = target: T25, ABL (Homo sapiens, UniProt P00519); assay: Kinase inhibition profiling ABL (ELISA)
T25 construct: made in house; host or cells: baculovirus expression system
T25 sequence (P00519 2-1130): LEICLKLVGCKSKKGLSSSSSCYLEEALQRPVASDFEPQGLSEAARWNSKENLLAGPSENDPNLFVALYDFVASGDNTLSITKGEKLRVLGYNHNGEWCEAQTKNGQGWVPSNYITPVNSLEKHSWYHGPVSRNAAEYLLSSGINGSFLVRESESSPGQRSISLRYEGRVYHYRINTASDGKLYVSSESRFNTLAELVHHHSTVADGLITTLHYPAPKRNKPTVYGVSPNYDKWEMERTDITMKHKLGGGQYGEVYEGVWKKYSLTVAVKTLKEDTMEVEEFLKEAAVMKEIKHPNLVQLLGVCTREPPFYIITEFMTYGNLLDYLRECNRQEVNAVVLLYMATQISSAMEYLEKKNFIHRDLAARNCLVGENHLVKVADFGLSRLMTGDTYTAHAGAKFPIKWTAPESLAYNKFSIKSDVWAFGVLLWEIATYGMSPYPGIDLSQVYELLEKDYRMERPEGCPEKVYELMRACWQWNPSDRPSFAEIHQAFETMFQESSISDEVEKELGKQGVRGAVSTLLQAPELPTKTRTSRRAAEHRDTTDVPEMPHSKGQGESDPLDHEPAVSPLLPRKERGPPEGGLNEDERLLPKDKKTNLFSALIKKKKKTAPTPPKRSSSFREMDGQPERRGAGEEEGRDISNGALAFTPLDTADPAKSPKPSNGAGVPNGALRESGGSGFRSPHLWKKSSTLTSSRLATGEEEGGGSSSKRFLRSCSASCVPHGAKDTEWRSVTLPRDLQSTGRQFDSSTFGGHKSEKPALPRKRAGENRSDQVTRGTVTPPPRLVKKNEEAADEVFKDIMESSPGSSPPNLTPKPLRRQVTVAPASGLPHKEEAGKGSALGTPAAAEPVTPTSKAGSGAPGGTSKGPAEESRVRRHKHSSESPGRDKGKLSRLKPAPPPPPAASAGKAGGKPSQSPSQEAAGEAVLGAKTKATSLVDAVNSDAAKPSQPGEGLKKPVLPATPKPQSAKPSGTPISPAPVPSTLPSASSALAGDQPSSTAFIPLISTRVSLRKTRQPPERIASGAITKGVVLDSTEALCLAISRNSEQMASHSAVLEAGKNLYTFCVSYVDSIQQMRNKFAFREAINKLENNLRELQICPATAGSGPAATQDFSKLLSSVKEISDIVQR
Description: as §1

LYNa = target: T26, LYNa (Homo sapiens, UniProt P07948); assay: Kinase inhibition profiling LYNa (ELISA)
T26 construct: made in house; host or cells: baculovirus expression system
T26 sequence (P07948 whole entry): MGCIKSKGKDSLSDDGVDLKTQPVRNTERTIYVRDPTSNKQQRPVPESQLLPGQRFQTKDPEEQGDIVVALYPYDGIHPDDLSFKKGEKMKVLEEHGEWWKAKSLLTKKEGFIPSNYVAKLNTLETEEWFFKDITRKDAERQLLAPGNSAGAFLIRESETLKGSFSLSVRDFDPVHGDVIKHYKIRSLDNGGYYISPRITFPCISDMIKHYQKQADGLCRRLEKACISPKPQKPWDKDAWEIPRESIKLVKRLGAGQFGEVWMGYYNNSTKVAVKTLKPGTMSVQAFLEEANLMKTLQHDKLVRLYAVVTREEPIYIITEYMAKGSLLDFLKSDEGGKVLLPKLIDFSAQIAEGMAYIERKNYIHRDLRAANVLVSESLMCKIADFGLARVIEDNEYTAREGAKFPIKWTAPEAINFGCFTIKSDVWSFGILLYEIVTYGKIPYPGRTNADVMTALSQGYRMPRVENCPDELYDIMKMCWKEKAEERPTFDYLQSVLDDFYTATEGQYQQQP
Description: as §1

CaMK4 = target: T27, CaMK4 (Homo sapiens, UniProt Q16566); assay: Kinase inhibition profiling CaMK4 (IMAP)
T27 construct: His (N); made in house; host or cells: baculovirus expression system
Description: as §2, §1

MAP2K7 = target: T28, MAP2K7 (Homo sapiens, UniProt O14733, S271E/S277E/T275E); assay: Kinase inhibition profiling MAP2K7 (AlphaScreen, cascade)
T28 construct: T275E, S277E] derived from wild type [419 amino acids; GST (N); made in house; host or cells: E. coli
From the text: AlphaScreen Assay [drawing 4]

MET = target: T29, MET (Homo sapiens, UniProt P08581); assay: Kinase inhibition profiling MET (ELISA); also: ATP 20 µM
T29 construct: made in house; host or cells: baculovirus expression system
Description: as §1

MAPKAPK2 = target: T30, MAPKAPK2 (Homo sapiens, UniProt P49137); assay: Kinase inhibition profiling MAPKAPK2 (IMAP)
T30 construct: His (N); made in house; host or cells: baculovirus expression system
Description: as §1

HCK = target: T31, HCK (Homo sapiens, UniProt P08631); assay: Kinase inhibition profiling HCK (ELISA); also: ATP 20 µM
T31 construct: made in house; host or cells: baculovirus expression system
Description: as §2, §1

COC(=O)[C@]1(O)CC2O[C@@]1(C)n1c3ccccc3c3c4c(c5c6ccccc6n2c5c31)C(=O)NC4 [K-252a]
inhibition at 0.2 µM (JNK2): 91.4% | inhibition at 0.2 µM (HER2): 7.7% | inhibition at 0.2 µM (EGFR): 16.4% | inhibition at 0.2 µM (PKCγ): 53.3% | inhibition at 0.2 µM (PDGFRα): 96.1% | inhibition at 0.2 µM (IGF1R): 40.6% | inhibition at 0.2 µM (IRAK4): 51.9% | inhibition at 0.2 µM (AurA): 91.9% | inhibition at 0.2 µM (CHK2): 93.9% | inhibition at 0.2 µM (TNK1): 94.8% | inhibition at 0.2 µM (PDGFRβ): 98.1% | inhibition at 0.2 µM (JAK1): 83.1% | inhibition at 0.2 µM (Erk1): 32% | inhibition at 0.2 µM (MER): 80.8% | inhibition at 0.2 µM (EphB4): 13.3% | inhibition at 0.2 µM (FAK): 53.5% | inhibition at 0.2 µM (FGR): 85.6% | inhibition at 0.2 µM (KIT): 87.3% | inhibition at 0.2 µM (FGFR1): 57.9% | inhibition at 0.2 µM (CaMK2α): 83.9% | inhibition at 0.2 µM (YES): 65.1% | inhibition at 0.2 µM (EphA2): 8.9% | inhibition at 0.2 µM (ARG): 0.1% | inhibition at 0.2 µM (FYN): 67.2% | inhibition at 0.2 µM (ABL): -14.2% | inhibition at 0.2 µM (LYNa): 58.9% | inhibition at 0.2 µM (CaMK4): 0% | inhibition at 0.2 µM (MAP2K7): 68.2% | inhibition at 0.2 µM (MET): 83.2% | inhibition at 0.2 µM (MAPKAPK2): 44.3% | inhibition at 0.2 µM (HCK): 68.2%
